Measurements published in ChEMBL document CHEMBL1153553, “Pharmacodynamics of RWJ-54428 against Staphylococcus aureus, Streptococcus pneumoniae, and Enterococcus faecalis in a neutropenic mouse thigh infection model” (Antimicrob Agents Chemother, 2008).

What was measured:
[1] = Clearance with respect to bioavailability in neutropenic Swiss mouse thigh infection model at 100 mg/kg, ip; format: ADME, organism-based; details: in vivo
Staphylococcus aureus [2] = assay: Antibacterial activity against methicillin-resistant Staphylococcus aureus isolate 604 after 24 hrs by broth microdilution method; format: functional; details: isolate 604, 24 h
Enterococcus faecalis [3] = assay: Antibacterial activity against Enterococcus faecalis EFS 007 after 24 hrs by broth microdilution method; format: functional; details: EFS 007, 24 h
[4] = fT>MIC in neutropenic Swiss mouse thigh model infected with Enterococcus faecalis ATCC 29212 assessed as 1 log reduction of bacterial count at 1.5 to 200 mg/kg, ip administered 2 hrs postinfection measured after 24 hrs; format: functional; details: dose mg/kg 1.5-200; route intraperitoneal
[5] = Apparent volume of distribution with respect to bioavailability in neutropenic Swiss mouse thigh infection model at 20 mg/kg, ip; format: ADME, organism-based; details: in vivo, read-out: Vc/F
[6] = fT>MIC in neutropenic Swiss mouse thigh model infected with Enterococcus faecalis ATCC 29212 assessed as maximal effect on bacterial count reduction at 1.5 to 200 mg/kg, ip administered 2 hrs postinfection measured after 24 hrs; format: functional; details: dose mg/kg 1.5-200; route intraperitoneal
[7] = AUC in neutropenic Swiss mouse thigh infection model at 20 mg/kg, ip; format: ADME, organism-based; design: dose 20 mg/kg, route intraperitoneal; details: in vivo
[8] = fT>MIC in neutropenic Swiss mouse thigh model infected with methicillin-resistant Staphylococcus aureus isolate 604 assessed as static effect on bacterial count reduction at 1.5 to 200 mg/kg, ip administered 2 hrs postinfection measured after 24 hrs; format: functional; details: dose mg/kg 1.5-200; route intraperitoneal
[9] = fT>MIC in neutropenic Swiss mouse thigh model infected with Streptococcus pneumoniae ATCC 49619 assessed as 2 log reduction of bacterial count at 1.5 to 200 mg/kg, ip administered 2 hrs postinfection measured after 24 hrs; format: functional; details: dose mg/kg 1.5-200; route intraperitoneal
Streptococcus pneumoniae [10] = assay: Antibacterial activity against penicillin-resistant Streptococcus pneumoniae SP 019 after 24 hrs by broth microdilution method; format: functional; details: SP 019, 24 h
[11] = fT>MIC in neutropenic Swiss mouse thigh model infected with methicillin-resistant Staphylococcus aureus 076 assessed as maximal effect on bacterial count reduction at 1.5 to 200 mg/kg, ip administered 2 hrs postinfection measured after 24 hrs; format: functional; details: dose mg/kg 1.5-200; route intraperitoneal
[12] = Protein binding in neutropenic Swiss mouse thigh infection model serum at 100 mg/kg, ip by ultrafiltration; format: ADME, organism-based; design: dose 100 mg/kg, route intraperitoneal; details: read-out: PB (converted)
[13] = Cmax in neutropenic Swiss mouse thigh infection model at 20 mg/kg, ip; format: ADME, organism-based; design: dose 20 mg/kg, route intraperitoneal; details: in vivo
Staphylococcus aureus [14] = assay: Antibacterial activity against methicillin-resistant Staphylococcus aureus infected in neutropenic Swiss mouse thigh model assessed as maximal bactericidal effect per thigh at 1.5 to 200 mg/kg, ip administered 2 hrs of postinfection measured after 24 hrs; format: functional; details: dose mg/kg 1.5-200; route intraperitoneal
[15] = fT>MIC in neutropenic Swiss mouse thigh model infected with Enterococcus faecalis EFS 007 assessed as 1 log reduction of bacterial count at 1.5 to 200 mg/kg, ip administered 2 hrs postinfection measured after 24 hrs; format: functional; details: dose mg/kg 1.5-200; route intraperitoneal
[16] = Protein binding in neutropenic Swiss mouse thigh infection model serum at 20 mg/kg, ip by ultrafiltration; format: ADME, organism-based; design: dose 20 mg/kg, route intraperitoneal; details: read-out: PB (converted)
[17] = fT>MIC in neutropenic Swiss mouse thigh model infected with Streptococcus pneumoniae ATCC 49619 assessed as static effect on bacterial count reduction at 1.5 to 200 mg/kg, ip administered 2 hrs postinfection measured after 24 hrs; format: functional; details: dose mg/kg 1.5-200; route intraperitoneal
[18] = fT>MIC in neutropenic Swiss mouse thigh model infected with Streptococcus pneumoniae ATCC 49619 assessed as maximal effect on bacterial count reduction at 1.5 to 200 mg/kg, ip administered 2 hrs postinfection measured after 24 hrs; format: functional; details: dose mg/kg 1.5-200; route intraperitoneal
[19] = Half life in neutropenic Swiss mouse thigh infection model at 20 mg/kg, ip; format: ADME, organism-based; design: dose 20 mg/kg, route intraperitoneal; details: in vivo
[20] = fT>MIC in neutropenic Swiss mouse thigh model infected with Enterococcus faecalis ATCC 29212 assessed as static effect on bacterial count reduction at 1.5 to 200 mg/kg, ip administered 2 hrs postinfection measured after 24 hrs; format: functional; details: dose mg/kg 1.5-200; route intraperitoneal
[21] = Tmax in neutropenic Swiss mouse thigh infection model at 20 mg/kg, ip; format: ADME, organism-based; design: dose 20 mg/kg, route intraperitoneal; details: in vivo
[22] = Apparent volume of distribution with respect to bioavailability in neutropenic Swiss mouse thigh infection model at 100 mg/kg, ip; format: ADME, organism-based; details: in vivo, read-out: Vc/F
[23] = fT>MIC in neutropenic Swiss mouse thigh model infected with methicillin-resistant Staphylococcus aureus isolate 602 assessed as maximal effect on bacterial count reduction at 1.5 to 200 mg/kg, ip administered 2 hrs postinfection measured after 24 hrs; format: functional; details: dose mg/kg 1.5-200; route intraperitoneal
[24] = fT>MIC in neutropenic Swiss mouse thigh model infected with Streptococcus pneumoniae ATCC 49619 assessed as 1 log reduction of bacterial count at 1.5 to 200 mg/kg, ip administered 2 hrs postinfection measured after 24 hrs; format: functional; details: dose mg/kg 1.5-200; route intraperitoneal
[25] = fT>MIC in neutropenic Swiss mouse thigh model infected with methicillin-resistant Staphylococcus aureus isolate 602 assessed as 1 log reduction of bacterial count at 1.5 to 200 mg/kg, ip administered 2 hrs postinfection measured after 24 hrs; format: functional; details: dose mg/kg 1.5-200; route intraperitoneal
[26] = fT>MIC in neutropenic Swiss mouse thigh model infected with methicillin-resistant Staphylococcus aureus isolate 609 assessed as static effect on bacterial count reduction at 1.5 to 200 mg/kg, ip administered 2 hrs postinfection measured after 24 hrs; format: functional; details: dose mg/kg 1.5-200; route intraperitoneal
Staphylococcus aureus [27] = assay: Antibacterial activity against methicillin-resistant Staphylococcus aureus 076 after 24 hrs by broth microdilution method; format: functional; details: Staphylococcus aureus, 076, 24 h
[28] = fT>MIC in neutropenic Swiss mouse thigh model infected with Enterococcus faecalis EFS 007 assessed as static effect on bacterial count reduction at 1.5 to 200 mg/kg, ip administered 2 hrs postinfection measured after 24 hrs; format: functional; details: dose mg/kg 1.5-200; route intraperitoneal
[29] = fT>MIC in neutropenic Swiss mouse thigh model infected with methicillin-resistant Staphylococcus aureus 076 assessed as static effect on bacterial count reduction at 1.5 to 200 mg/kg, ip administered 2 hrs postinfection measured after 24 hrs; format: functional; details: dose mg/kg 1.5-200; route intraperitoneal
[30] = fT>MIC in neutropenic Swiss mouse thigh model infected with Enterococcus faecalis EFS 007 assessed as maximal effect on bacterial count reduction at 1.5 to 200 mg/kg, ip administered 2 hrs postinfection measured after 24 hrs; format: functional; details: dose mg/kg 1.5-200; route intraperitoneal
Streptococcus pneumoniae [31] = assay: Antibacterial activity against Streptococcus pneumoniae ATCC 49619 after 24 hrs by broth microdilution method; format: functional; details: ATCC 49619, 24 h
[32] = Half life in neutropenic Swiss mouse thigh infection model at 100 mg/kg, ip; format: ADME, organism-based; design: dose 100 mg/kg, route intraperitoneal; details: in vivo
[33] = Clearance with respect to bioavailability in neutropenic Swiss mouse thigh infection model at 20 mg/kg, ip; format: ADME, organism-based; details: in vivo
[34] = fT>MIC in neutropenic Swiss mouse thigh model infected with methicillin-resistant Staphylococcus aureus COL assessed as 1 log reduction of bacterial count at 1.5 to 200 mg/kg, ip administered 2 hrs postinfection measured after 24 hrs; format: functional; details: dose mg/kg 1.5-200; route intraperitoneal
Enterococcus faecalis [35] = assay: Antibacterial activity against Enterococcus faecalis ATCC 29212 after 24 hrs by broth microdilution method; format: functional; details: ATCC 29212, 24 h
Streptococcus pneumoniae [36] = assay: Antibacterial activity against Streptococcus pneumoniae infected in neutropenic Swiss mouse thigh model assessed as maximal bactericidal effect per thigh at 1.5 to 200 mg/kg, ip administered 2 hrs of postinfection measured after 24 hrs; format: functional; details: dose mg/kg 1.5-200; route intraperitoneal
Staphylococcus aureus [37] = assay: Antibacterial activity against methicillin-resistant Staphylococcus aureus COL after 24 hrs by broth microdilution method; format: functional
Enterococcus faecalis [38] = assay: Antibacterial activity against Enterococcus faecalis infected in neutropenic Swiss mouse thigh model assessed as maximal bactericidal effect per thigh at 1.5 to 200 mg/kg, ip administered 2 hrs of postinfection measured after 24 hrs; format: functional; details: dose mg/kg 1.5-200; route intraperitoneal
[39] = fT>MIC in neutropenic Swiss mouse thigh model infected with penicillin-resistant Streptococcus pneumoniae SP 019 assessed as static effect on bacterial count reduction at 1.5 to 200 mg/kg, ip administered 2 hrs postinfection measured after 24 hrs; format: functional; details: dose mg/kg 1.5-200; route intraperitoneal
[40] = Tmax in neutropenic Swiss mouse thigh infection model at 100 mg/kg, ip; format: ADME, organism-based; design: dose 100 mg/kg, route intraperitoneal; details: in vivo
Staphylococcus aureus [41] = assay: Antibacterial activity against methicillin-resistant Staphylococcus aureus isolate 609 after 24 hrs by broth microdilution method; format: functional; details: isolate 609, 24 h
[42] = fT>MIC in neutropenic Swiss mouse thigh model infected with penicillin-resistant Streptococcus pneumoniae SP 019 assessed as 1 log reduction of bacterial count at 1.5 to 200 mg/kg, ip administered 2 hrs postinfection measured after 24 hrs; format: functional; details: dose mg/kg 1.5-200; route intraperitoneal
[43] = fT>MIC in neutropenic Swiss mouse thigh model infected with methicillin-resistant Staphylococcus aureus isolate 602 assessed as static effect on bacterial count reduction at 1.5 to 200 mg/kg, ip administered 2 hrs postinfection measured after 24 hrs; format: functional; details: dose mg/kg 1.5-200; route intraperitoneal
[44] = fT>MIC in neutropenic Swiss mouse thigh model infected with methicillin-resistant Staphylococcus aureus COL assessed as maximal effect on bacterial count reduction at 1.5 to 200 mg/kg, ip administered 2 hrs postinfection measured after 24 hrs; format: functional; details: dose mg/kg 1.5-200; route intraperitoneal
Staphylococcus aureus [45] = assay: Antibacterial activity against methicillin-resistant Staphylococcus aureus isolate 602 after 24 hrs by broth microdilution method; format: functional; details: isolate 602, 24 h
[46] = fT>MIC in neutropenic Swiss mouse thigh model infected with methicillin-resistant Staphylococcus aureus isolate 609 assessed as maximal effect on bacterial count reduction at 1.5 to 200 mg/kg, ip administered 2 hrs postinfection measured after 24 hrs; format: functional; details: dose mg/kg 1.5-200; route intraperitoneal
[47] = AUC in neutropenic Swiss mouse thigh infection model at 100 mg/kg, ip; format: ADME, organism-based; design: dose 100 mg/kg, route intraperitoneal; details: in vivo
[48] = Cmax in neutropenic Swiss mouse thigh infection model at 100 mg/kg, ip; format: ADME, organism-based; design: dose 100 mg/kg, route intraperitoneal; details: in vivo
[49] = fT>MIC in neutropenic Swiss mouse thigh model infected with methicillin-resistant Staphylococcus aureus COL assessed as static effect on bacterial count reduction at 1.5 to 200 mg/kg, ip administered 2 hrs postinfection measured after 24 hrs; format: functional; details: dose mg/kg 1.5-200; route intraperitoneal

With `CS(=O)(=O)O.NCCSCc1cnccc1SC1=C(C(=O)O)N2C(=O)[C@@H](NC(=O)/C(=N\O)c3nc(N)sc3Cl)[C@H]2SC1` the CL/F [1] was 15 mL/min/kg, the MIC (Staphylococcus aureus [2]) was 0.5 µg/mL and the MIC (Enterococcus faecalis [3]) was 0.125 µg/mL. For the same compound, the “fT>MIC” value [4] was 48%, the Vd/F [5] was 0.3 L/kg and the “fT>MIC” value [6] was 60%. The AUC [7] was 16600 ng·h/mL, the “fT>MIC” value [8] was 20% and the “fT>MIC” value [9] was 23%. The MIC (Streptococcus pneumoniae [10]) was 0.5 µg/mL, the “fT>MIC” value [11] was 32% and the fraction unbound [12] was 0.4. For the same compound, the Cmax [13] was 47.3 µg/mL, the log10cfu (Staphylococcus aureus [14]) was -2.83 and the “fT>MIC” value [15] was 56%. The fraction unbound [16] was 0.4, the “fT>MIC” value [17] was 18% and the “fT>MIC” value [18] was 28%. For the same compound, the half-life [19] was 10.2 min, the “fT>MIC” value [20] was 30% and the Tmax [21] was 5.4 min. For the same compound, the Vd/F [22] was 0.44 L/kg, the “fT>MIC” value [23] was 24% and the “fT>MIC” value [24] was 21%. The “fT>MIC” value [25] was 20%, the “fT>MIC” value [26] was 16% and the MIC (Staphylococcus aureus [27]) was 1 µg/mL. For the same compound, the “fT>MIC” value [28] was 46%, the “fT>MIC” value [29] was 16% and the “fT>MIC” value [30] was 60%. The MIC (Streptococcus pneumoniae [31]) was 0.03 µg/mL, the half-life [32] was 19.8 min and the CL/F [33] was 20 mL/min/kg. For the same compound, the “fT>MIC” value [34] was 20%, the MIC (Enterococcus faecalis [35]) was 0.06 µg/mL and the log10cfu (Streptococcus pneumoniae [36]) was -3.75. For the same compound, the MIC (Staphylococcus aureus [37]) was 1 µg/mL, the log10cfu (Enterococcus faecalis [38]) was -1.65 and the “fT>MIC” value [39] was 16%. For the same compound, the Tmax [40] was 15.6 min, the MIC (Staphylococcus aureus [41]) was 0.5 µg/mL and the “fT>MIC” value [42] was 22%. The “fT>MIC” value [43] was 17%, the “fT>MIC” value [44] was 36% and the MIC (Staphylococcus aureus [45]) was 0.5 µg/mL. The “fT>MIC” value [46] was 22%, the AUC [47] was 108000 ng·h/mL and the Cmax [48] was 133 µg/mL. The “fT>MIC” value [49] was 14%.
